Values quoted from earlier work as cited in patent publication US10874768B2, “Drug eluting medical device” (priority 2017, dated 2020).

Conditions: human, 3 patients, 180 mg/m^2 infusion over 3 hours

CC(=O)O[C@H]1C(=O)[C@@]2(C)[C@H]([C@H](OC(=O)c3ccccc3)[C@]3(O)C[C@H](OC(=O)[C@H](O)[C@@H](NC(=O)c4ccccc4)c4ccccc4)C(C)=C1C3(C)C)[C@]1(OC(C)=O)CO[C@@H]1C[C@@H]2O [paclitaxel]
Cmax: 5.23 µM
